One compound from article PMC9000482, “Inhibition of Aldose Reductase by Ginsenoside Derivatives via a Specific Structure Activity Relationship with Kinetics Mechanism and Molecular Docking Study” (Molecules, 2022) can be followed below.

For experiment [1], the target named is T1, rat lens aldose reductase (RLAR) (Rattus norvegicus, UniProt P07943).
T1 construct: from tissue; host or cells: lens of Sprague-Dawley rats (supernatant of homogenate)
In words: RLAR inhibitory activity assay (rat lens homogenate, DL-glyceraldehyde substrate). As to conditions: rat lens homogenate; substrate DL-glyceraldehyde; mean ± S.E.M. of triplicate experiments; read-out: RLAR IC50. It is filed as biochemical. On the procedure: A rat lens homogenate was prepared with minor modifications according to the method reported by Hayman et al.. Briefly, the lenses were removed from the eyes of Sprague-Dawley rats weighing 250–280 g. They were homogenized in sodium phosphate buffer (pH 6.2) that was prepared with dibasic sodium phosphate (Na2HPO4∙H2O, 0.66 g) and monobasic sodium phosphate (NaH2PO4∙H2O, 1.27 g) in 100 mL of double-distilled H2O. The homogenate was clarified by centrifugation at 10,000 rpm at 4 °C for 20 min and the resultant supernatant was frozen until use. A crude AR homogenate with a specific activity of 6.5 U/mg was used in all enzyme inhibition evaluations. The reaction solution consisted of 620 µL of 100 mM sodium phosphate buffer (pH 6.2), 90 µL of AR homogenate, 90 µL of 1.6 mM NADPH, and 9 µL of sample, while the substrate included 90 µL of 50 mM DL-glyceraldehyde. […] AR activity was determined by measuring the decrease in NADPH absorption at 340 nm over a 4 min period on an Ultrospec®2100pro UV/Visible spectrophotometer. SWIFT II Applications software (Amersham Biosciences, NJ, USA) was used for all data analyses. The inhibition percentage (%) was calculated as follows in Equation (1):[1 − (∆Asample/min − ∆Ablank/min)/(∆Acontrol/min − ∆Ablank/min)] × 100(1) in which ∆Asample/min represents the test sample and substrate’s reduction in absorbance over 4 min, and ∆A control/min represents the same reduction in absorbance, but with 100% DMSO (dimethyl sulfoxide) rather than the test sample.

Experiment [2] addresses T2, human recombinant aldose reductase (HRAR) (Homo sapiens, UniProt P15121).
T2 construct: purchased Wako Chemicals (Osaka, Japan)
In words: HRAR inhibition assay (DL-glyceraldehyde substrate). As to conditions: substrate DL-glyceraldehyde; mean ± S.E.M. of triplicate experiments; read-out: HRAR IC50. It counts as biochemical. As to the method: HRAR inhibition was studied according to Nishimura et al.. AR action was studied by measuring the reduction in NADPH absorption at 340 nm over a period of 1 min on a UV/visible spectrophotometer (Ultrospec®2100pro, Biochrom, Holliston, MA, USA). For HRAR inhibition, the HRAR enzyme (0.4 units), was used in all enzyme inhibition evaluations. […] The inhibition percentage (%) was measured as designated in the RLAR assay. The DA sample/min value characterizes the decrease in absorbance for 1 min with the test samples and substrate. The ability of each sample to inhibit HRAR was observed as an IC50 value (µM) and measured from the log-dose inhibition curve.

For experiment [3], the target named is T1, rat lens aldose reductase (RLAR). In words: Enzyme kinetics of RLAR inhibition (Lineweaver-Burk and Dixon plots). It counts as biochemical. As to conditions: for RLAR Mode of Inhibition: Lineweaver-Burk plot. On the procedure:
(§1) Enzyme inhibition with different concentrations ([…]) was assessed by monitoring the effects of different concentrations of the substrate. The following concentrations of test ginsenosides were used in the RLAR kinetics analysis: 0, 2, 10, and 50 µM for protopanaxadiol; 0, 0.5, 2.5, and 10 µM for (20S) ginsenoside Rg3; 0, 0.5, 2.5, and 10 µM for (20R) ginsenoside Rg3; 0, 0.1, 0.5, and 2.5 µM for ginsenoside Rh2; 0, 2, 10, and 50 µM for protopanaxatriol; 0, 0.8, 4, and 20 µM for ginsenoside Rf; 0, 0.8, 4, and 20 µM for (20S) ginsenoside Rg2, and 0, 0.5, 2.5, and 10 µM for ginsenoside Rh1. Using Lineweaver-Burk double reciprocal plots, the inhibition type was determined using various concentrations of DL-glyceraldehyde (5, 10, and 20 mM) for HRAR as a substrate in the presence of different concentrations of the active test ginsenosides. The concentrations of test ginsenosides in the HRAR kinetics analysis were as follows: 0, 0.1, 0.5, and 2.5 µM for protopanaxadiol; 0, 0.5, 2, and 10 µM for (20S) ginsenoside Rg3; 0, 1, 5, and 20 µM for (20R) ginsenoside Rg3; 0, 0.5, 2.5, and 10 µM for ginsenoside Rh2; 0, 0.1, 0.5, and 2.5 µM for compound K; 0, 1, 5, and 10 µM for protopanaxatriol; 0, 0.5, 4, and 20 µM for (20R) ginsenoside Rg2, and 0, 0.2, 2, and 5 µM for ginsenoside Rh1. The Dixon plot is a graphical method [1/enzyme velocity (1/V)] against inhibitor concentration [I] used to determine the type of enzyme inhibition; it was used to identify the dissociation or inhibition constant (Ki) for the enzyme-inhibitor complex. Dixon plots (single reciprocal plots) for RLAR and HRAR inhibition were obtained in the presence of 100, 50, and 10 mM RLAR, and 20, 10, and 5 mM HRAR DL-glyceraldehyde substrate. Thus, the type of enzyme inhibition was determined by interpreting the Lineweaver-Burk plots, and the inhibition constants (Ki) were determined by interpreting the Dixon plots.

The target in experiment [4] is T2, human recombinant aldose reductase (HRAR). Kind of experiment: Enzyme kinetics of HRAR inhibition (Lineweaver-Burk and Dixon plots). It is filed as biochemical. As to conditions: for HRAR Mode of Inhibition: Lineweaver-Burk plot. As to the method: as §1
Experiment [5] deals with sorbitol accumulation in rat lens. Kind of experiment: Lens culture and intracellular sorbitol measurement (ex vivo). It counts as cell-based, Sprague-Dawley rats. The conditions noted are these: 25 mM glucose, 6 days, sample 5 μg/mL, mean ± SD (n = 3).

Marks after values point to notes of the source that are not given here.

Consider `CC(C)=CCC[C@](C)(O)[C@H]1CC[C@]2(C)[C@@H]1[C@H](O)C[C@@H]1[C@@]3(C)CC[C@H](O)C(C)(C)[C@@H]3[C@@H](O)C[C@]12C` [Protopanaxatriol], for which the figures for the IC50 in experiment [1] and in experiment [2] were 27.9 ± 1.19 µM and 1.43 ± 0.14 µM, respectively. For the same compound, the Ki (in general, a measure of affinity in units of concentration, obtained from inhibition or displacement) was determined as 28.9 µM in experiment [3] (Dixon plots, single inhibition constant, read-out: RLAR Ki) and 2.61 µM in experiment [4] (Dixon plots, single inhibition constant, read-out: HRAR Ki). For the same compound, the “RLAR Mode of Inhibition” value was “Non-competitive type” in experiment [3] and “non-competitive” in experiment [3] (listed as protopanaxatriol). Further, the “HRAR Mode of Inhibition” value is recorded as “Competitive type” in experiment [4] and “competitive” in experiment [4] (listed as protopanaxatriol). In addition, in experiment [5], the “Sorbitol Content (mg)/Lens Wet Weight (g)” value is 0.09 ± 0.01 ^a mg/g. For the same compound, in experiment [5] (Rattus norvegicus, 144 h), the inhibition (commonly the percentage by which the read-out fell short of the control) at 5 µg/mL was found to be 94.8 ± 3.46%.
